Reference: ChEMBL document CHEMBL1156011, “Identification of orally bioavailable, non-amidine inhibitors of Urokinase Plasminogen Activator (uPA)” (Bioorg Med Chem Lett, 2009)

Columns and labels:
[1] = Volume of distribution in rat; assay type: ADME, organism-based; details: in vivo
[2] = Oral bioavailability in rat; assay type: ADME, organism-based; details: in vivo
[3] = Half life in rat; assay type: ADME, organism-based; details: in vivo
[4] = target: Plasminogen (Homo sapiens, UniProt P00747); assay: Inhibition of plasmin
[5] = target: Tissue-type plasminogen activator (Homo sapiens, UniProt P00750); assay: Inhibition of tPA
[6] = Clearance in rat; assay type: ADME, organism-based; details: in vivo
[7] = target: Urokinase-type plasminogen activator (Homo sapiens, UniProt P00749); assay: Inhibition of uPA
[8] = Cmax in rat; assay type: ADME, organism-based; details: in vivo

Tissue-type plasminogen activator, sequence (P00750 whole entry): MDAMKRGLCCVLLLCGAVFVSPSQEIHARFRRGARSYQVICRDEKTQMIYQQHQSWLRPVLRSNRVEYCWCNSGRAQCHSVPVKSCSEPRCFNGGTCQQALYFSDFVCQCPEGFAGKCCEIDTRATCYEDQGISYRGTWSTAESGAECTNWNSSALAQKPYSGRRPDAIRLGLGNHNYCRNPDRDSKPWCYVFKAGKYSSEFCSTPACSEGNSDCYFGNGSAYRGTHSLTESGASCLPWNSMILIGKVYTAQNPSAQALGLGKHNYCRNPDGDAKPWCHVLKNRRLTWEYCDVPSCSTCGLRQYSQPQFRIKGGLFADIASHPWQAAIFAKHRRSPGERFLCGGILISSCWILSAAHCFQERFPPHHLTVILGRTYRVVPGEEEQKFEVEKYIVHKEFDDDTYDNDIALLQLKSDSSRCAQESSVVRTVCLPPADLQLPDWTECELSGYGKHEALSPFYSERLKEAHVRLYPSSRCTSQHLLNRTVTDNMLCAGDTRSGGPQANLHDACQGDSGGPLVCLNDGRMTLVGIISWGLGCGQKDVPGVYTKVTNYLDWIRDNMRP
Plasminogen, sequence (P00747 97-580 limits assumed): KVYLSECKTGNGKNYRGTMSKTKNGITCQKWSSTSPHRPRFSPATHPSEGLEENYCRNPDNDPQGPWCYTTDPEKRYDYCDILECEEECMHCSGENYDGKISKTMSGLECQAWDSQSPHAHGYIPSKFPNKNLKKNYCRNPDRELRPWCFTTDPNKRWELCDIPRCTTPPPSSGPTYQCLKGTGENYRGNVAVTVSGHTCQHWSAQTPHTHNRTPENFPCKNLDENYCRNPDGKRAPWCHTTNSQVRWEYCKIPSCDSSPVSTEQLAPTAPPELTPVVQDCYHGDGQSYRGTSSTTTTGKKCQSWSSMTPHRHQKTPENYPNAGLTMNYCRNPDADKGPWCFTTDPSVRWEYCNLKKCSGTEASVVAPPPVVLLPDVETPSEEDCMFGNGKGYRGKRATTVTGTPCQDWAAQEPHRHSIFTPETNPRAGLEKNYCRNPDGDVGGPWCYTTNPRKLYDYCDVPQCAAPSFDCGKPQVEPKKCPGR
Plasminogen, sequence (P00747 581-810 limits assumed): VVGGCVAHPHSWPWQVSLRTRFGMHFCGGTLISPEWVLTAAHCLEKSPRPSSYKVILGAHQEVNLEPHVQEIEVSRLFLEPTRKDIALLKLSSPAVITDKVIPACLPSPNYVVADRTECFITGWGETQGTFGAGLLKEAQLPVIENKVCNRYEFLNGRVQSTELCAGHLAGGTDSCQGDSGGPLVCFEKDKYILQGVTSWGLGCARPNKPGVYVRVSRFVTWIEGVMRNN

Structure (SMILES) | IC50 [4] | IC50 [5] | IC50 [7] | further results
CN(C)c1ccc(C(=O)O)c(Oc2nc(Oc3cccc(-c4cccc(CN)c4)c3)c(F)c(N3CCC(N(C)C)C3)c2F)c1 (stereo unspecified) | 1.9 µM | 5.2 µM | – | Vd [1]: 1 L/kg; bioavailability [2]: 0%; half-life [3]: 276 min; clearance [6]: 5 mL/min/kg
CNCc1cccc(-c2cccc(Oc3nc(Oc4cc(N(C)C)ccc4C(=O)O)c(F)cc3F)c2)c1 | – | – | > 30 µM | –
CN(C)c1ccc(C(=O)O)c(Oc2nc(Oc3cccc(-c4cccc(CN)c4)c3)c(F)c(N(C)C)c2F)c1 | 2.9 µM | > 30 µM | 0.53 µM | –
NCc1cccc(-c2cccc(Oc3nc(Oc4cccc(C(=O)O)c4)c(F)cc3F)c2)c1 | – | – | 20 µM | –
CN(C)Cc1cccc(-c2cccc(Oc3nc(Oc4cc(N(C)C)ccc4C(=O)O)c(F)cc3F)c2)c1 | – | – | > 30 µM | –
Cc1ccc(C(=O)O)c(Oc2nc(Oc3cc(-c4cccc(CN)c4)ccc3N)c(F)cc2F)c1 | 11 µM | 15 µM | 0.089 µM | –
Cc1ccc(C(=O)O)c(Oc2nc(Oc3cc(N)cc(-c4cccc(CN)c4)c3)c(F)c(N3CCC(N(C)C)C3)c2F)c1 (stereo unspecified) | 3 µM | 8.5 µM | 0.015 µM | –
Cc1c(F)c(Oc2cccc(-c3cccc(C(=N)N)c3)c2)nc(Oc2cc(N(C)C)ccc2C(=O)O)c1F | 2.1 µM | 3.9 µM | 0.098 µM | –
Cc1ccc(-n2cnnn2)c(Oc2nc(Oc3cccc(-c4cccc(CN)c4)c3)c(F)cc2F)c1 | – | – | 13 µM | –
NCc1cccc(-c2cccc(Oc3nc(Oc4ccccc4C(=O)O)c(F)cc3F)c2)c1 | 21 µM | > 30 µM | 0.84 µM | –
NCc1cccc(-c2cccc(Oc3nc(Oc4ccc(C(=O)O)cc4)c(F)cc3F)c2)c1 | – | – | > 30 µM | –
CN(C)c1ccc(C(=O)O)c(Oc2nc(Oc3cccc(-c4cccc(CN)c4)c3)c(F)cc2F)c1 | 6.5 µM | 18 µM | 0.1 µM | Vd [1]: 1.15 L/kg; bioavailability [2]: 9%; half-life [3]: 30 min; clearance [6]: 26 mL/min/kg; Cmax [8]: 33 ng/mL
CN(C)c1ccc(C(=O)O)c(Oc2nc(Oc3cccc(-c4ccc(CN)cc4)c3)c(F)cc2F)c1 | – | – | > 30 µM | –
CN(C)c1ccc(C(=O)O)c(Oc2nc(Oc3cccc(-c4cccc(CN)c4)c3)c(F)c(N3CCOCC3)c2F)c1 | 2.1 µM | 10 µM | 0.9 µM | –
CN(C)CCN(C)c1c(F)c(Oc2cccc(-c3cccc(CN)c3)c2)nc(Oc2cc(N(C)C)ccc2C(=O)O)c1F | 6.3 µM | 28 µM | 0.1 µM | –
COc1ccc(C(=O)O)c(Oc2nc(Oc3cccc(-c4cccc(CN)c4)c3)c(F)cc2F)c1 | 9.4 µM | > 30 µM | 0.22 µM | –
NCc1cccc(-c2cccc(Oc3nc(Oc4cc([N+](=O)[O-])ccc4C(=O)O)c(F)cc3F)c2)c1 | – | – | 1.3 µM | –
CC(C)c1ccc(C(=O)O)c(Oc2nc(Oc3cccc(-c4cccc(CN)c4)c3)c(F)cc2F)c1 | 2.8 µM | – | 0.68 µM | –
Cc1cccc(C(=O)O)c1Oc1nc(Oc2cccc(-c3cccc(CN)c3)c2)c(F)cc1F | 8.6 µM | – | 0.54 µM | –
Cc1ccc(C(=O)O)c(Oc2nc(Oc3cccc(-c4cccc(CN)c4)c3)c(F)cc2F)c1 | 5 µM | 22 µM | 0.24 µM | Vd [1]: 0.7 L/kg; bioavailability [2]: 37%; half-life [3]: 30 min; clearance [6]: 54 mL/min/kg; Cmax [8]: 220 ng/mL
Cc1ccc(C(=O)O)c(Oc2nc(Oc3cc(O)cc(-c4cccc(CN)c4)c3)c(F)cc2F)c1 | 5.5 µM | 14 µM | 0.023 µM | –
Cc1ccc(Oc2nc(Oc3cccc(-c4cccc(CN)c4)c3)c(F)cc2F)c(C(=O)O)c1 | – | – | 3.5 µM | –
Cc1ccc(C(=O)O)c(Oc2nc(Oc3cc(N)cc(-c4cccc(CN)c4)c3)c(F)cc2F)c1 | 5 µM | > 30 µM | 0.039 µM | Vd [1]: 4.6 L/kg; bioavailability [2]: 18%; half-life [3]: 15.6 min; clearance [6]: 257 mL/min/kg; Cmax [8]: 59 ng/mL
NCc1cccc(-c2cccc(Oc3nc(Oc4ccccc4CC(=O)O)c(F)cc3F)c2)c1 | – | – | 8.1 µM | –
CNc1c(F)c(Oc2cccc(-c3cccc(CN)c3)c2)nc(Oc2cc(N(C)C)ccc2C(=O)O)c1F | 3.6 µM | 16 µM | 0.13 µM | –
Cc1ccc(C(=O)O)c(Oc2nc(Oc3cc(CN)cc(-c4cccc(CN)c4)c3)c(F)cc2F)c1 | 2.7 µM | – | 2.7 µM | –
NCc1cccc(-c2cccc(Oc3nc(Oc4ccccc4CCC(=O)O)c(F)cc3F)c2)c1 | – | – | > 30 µM | –
Cc1ccc(C(=O)O)c(Oc2nc(Oc3ccc(N)c(-c4cccc(CN)c4)c3)c(F)cc2F)c1 | – | – | > 30 µM | –
CN(C)c1ccc(C(=O)O)c(Oc2nc(Oc3cccc(-c4cccc(CN)c4)c3)c(F)c(N3CCNCC3)c2F)c1 | 4.4 µM | 11 µM | 0.065 µM | –
Cc1cccc(Oc2nc(Oc3cccc(-c4cccc(CN)c4)c3)c(F)cc2F)c1C(=O)O | – | – | 26 µM | –
